Experimental findings from patent US20090209633A1, “Treatment of Pain With Resiniferatoxin and Related Analogs” (priority 2006, published 2009) are described below.

For assay [1], the target named is T1, cloned TRPV1 (Rattus norvegicus, UniProt O35433).
T1 construct: expressed in transfected cells; host or cells: Xenopus laevis oocytes injected with TRPV1 cRNA
In words: Single-channel currents in excised (outside-out) patches from oocytes expressing cloned TRPV1. It is filed as cell-based. The note with it: for single-channel conductance / single-channel current amplitude: excised patches, cloned TRPV1; for Po: outside-out/excised patches, RTX, capsaicin 100 nM. The procedure:
(§1) Oocytes were obtained by an abdominal incision after anaesthetizing the frog by immersion in a 0.05% solution of 3-aminobenzoic acid ethyl ester (MS222). Animals were killed by a subcutaneous injection of a 2% solution of MS222 according to NIH guidelines. One day after separating the oocytes from the follicular layer, 50-70 nl TRPV1 cRNA was injected using a Drummond Nanoject (Drummond Scientific Co., Broomall, Pa., USA). Oocytes were used for recording from 3 days after the injection. Double-electrode voltage clamp was performed using a Warner amplifier (Warner Instruments, Hamden, Conn., USA). Data were digitized and stored on videotape or directly stored on the computer using a LabView interface (National Instruments, Austin, Tex., USA). Experiments were performed at 21-23° C. Oocytes were placed in a Perspex chamber superfused (5-10 ml min^−1) with Ca^2+-free Ringer solution containing (mM): NaCl 100, KCl 2.5 and Hepes 5; pH adjusted to 7.35 with NaOH. Current-voltage relationships were measured using 1-s voltage ramps from −80 to +80 mV.
For single-channel recording in cell-attached patches from DRG neurons, the bath solution contained (mM): potassium gluconate 140, KCl 2.5, MgCl2 1, Hepes 5 and EGTA 1.5; pH adjusted to 7.35 with NaOH. The patch pipettes were made from glass capillaries (Drummond, Microcaps), coated with Sylgard (Dow Corning, Midland, Mich., USA). For cell-attached patches, the patch pipettes were filled with a solution that contained (mM): sodium gluconate 140, NaCl 10, MgCl2 1, Hepes 5 and EGTA 1.5; pH adjusted to 7.35 with NaOH. While recording from cell-attached patches, in order to avoid differences in the driving force because of the differences in the membrane potential, the external NaCl was replaced by an equal amount of KCl in order to nullify the membrane potential. For outside-out patches, the pipette solution contained (mM): sodium gluconate 90, NaCl 10, BAPTA 10, Hepes 10, K2ATP2 and GTP 0.25; pH adjusted to 7.35 with NaOH. The bath solution contained (mM): sodium gluconate 100, KCl 2.5, MgCl2 1, Hepes 5 and EGTA 1.5; pH adjusted to 7.35 with NaOH. All the experiments were performed at room temperature (21-23° C.). Agar-bridge electrodes were used to avoid changes in junction potential. The currents were recorded using a WPC 100 (Warner Instruments) or Axopatch 2B (Axon Instruments, Union City, Calif., USA) patch-clamp amplifier. Data were filtered at 10 kHz (Axopatch 2B), digitized (VR-10B, Instrutech Corp.), and stored on videotapes. For the analysis of amplitude and open probability (Po), the data were filtered at 2.5 kHz (−3 db frequency with an 8-pole low-pass Bessel filter, Warner Instruments) and digitized at 5 kHz. For dwell-time analysis, the data were filtered at 10 kHz and digitized at 50 kHz.
Single-channel analysis. Single-channel current amplitude and Po were estimated from all-point current amplitude histograms (Channel 2 software kindly provided by Michael Smith, Australian National University, Can berra, Australia) and fitted to Gaussian densities (Origin, OriginLab Corp., Northampton, Mass., USA). For current-voltage relationships, the amplitudes were determined by fitting a Gaussian curve to an all-point histogram. Po was determined using unedited segments of data, which were typically 1-5 min long. For multiple channel patches, the mean Po was measured as nPo, where n is the number of channels in the patch. Chord conductance was measured at +60 or −60 mV. Slope conductance was determined by linear fits to current-voltage data between +20 and +100 mV or −20 and −100 mV.
Next we recorded single-channel currents from the cloned TRPV1 in excised patches. […] (Premkumar et al. 2002.)
Next we recorded single-channel currents using outside-out patches from oocytes expressing TRPV1.

Assay [2] has as its target T2, rat TRPV1 (Rattus norvegicus, UniProt O35433).
T2 construct: expressed in transfected cells; host or cells: Xenopus laevis oocytes injected with TRPV1 cRNA
In words: Whole-cell currents in Xenopus laevis oocytes expressing TRPV1 (double-electrode voltage clamp). It is filed as cell-based. The following applies: capsaicin 300 nM; for activation time (10-90% of the rising phase): holding −60 mV, protons pH 5.5, RTX 10 nM; for reversal potential of agonist-induced whole-cell current: ramp −80 to +80 mV in 1 s; for reversal/deactivation of current on agonist removal: −60 mV, pH 5.5, NADA 10 μM, washout >15 min for RTX. The procedure:
Rat TRPV1 dcRNA. Cloned rat TRPV1 was obtained from the Julius Lab at the University of California San Francisco. TRPV1 cRNA was obtained using standard techniques known to those of skill in the art.
Electrophysiology. Whole-cell and single-channel currents were recorded from rat DRG neurons in culture and from Xenopus laevis oocytes injected with rat TRPV1 cRNA. Animals were cared for according to the standards of the National Institutes of Health (NIH). All animal use protocols were approved by Southern Illinois University School of Medicine Animal Care Committee.
as §1
This example tests the activation of whole-cell currents in oocytes by RTX. Whole-cell currents were recorded from oocytes heterologously expressing TRPV1. […] Agonist-induced currents are shown after subtracting the leak current in the absence of the agonist. […] In order to quantify this, we calculated the ratio of outward and inward currents. […] PKC activation increases sensitivity as well as TRPV1 translocation. […] (Szallasi et al. 1990b; Caterina et al. 1997; Marshall et al. 2003.)

Setting [3] is: oocytes expressing TRPV1, +60 mV.

Values joined by “and” are separate entries in the source; they are usually repeats but may differ in a detail not shown here. Equal entries are not always repeated.

T2 sequence (O35433 whole entry): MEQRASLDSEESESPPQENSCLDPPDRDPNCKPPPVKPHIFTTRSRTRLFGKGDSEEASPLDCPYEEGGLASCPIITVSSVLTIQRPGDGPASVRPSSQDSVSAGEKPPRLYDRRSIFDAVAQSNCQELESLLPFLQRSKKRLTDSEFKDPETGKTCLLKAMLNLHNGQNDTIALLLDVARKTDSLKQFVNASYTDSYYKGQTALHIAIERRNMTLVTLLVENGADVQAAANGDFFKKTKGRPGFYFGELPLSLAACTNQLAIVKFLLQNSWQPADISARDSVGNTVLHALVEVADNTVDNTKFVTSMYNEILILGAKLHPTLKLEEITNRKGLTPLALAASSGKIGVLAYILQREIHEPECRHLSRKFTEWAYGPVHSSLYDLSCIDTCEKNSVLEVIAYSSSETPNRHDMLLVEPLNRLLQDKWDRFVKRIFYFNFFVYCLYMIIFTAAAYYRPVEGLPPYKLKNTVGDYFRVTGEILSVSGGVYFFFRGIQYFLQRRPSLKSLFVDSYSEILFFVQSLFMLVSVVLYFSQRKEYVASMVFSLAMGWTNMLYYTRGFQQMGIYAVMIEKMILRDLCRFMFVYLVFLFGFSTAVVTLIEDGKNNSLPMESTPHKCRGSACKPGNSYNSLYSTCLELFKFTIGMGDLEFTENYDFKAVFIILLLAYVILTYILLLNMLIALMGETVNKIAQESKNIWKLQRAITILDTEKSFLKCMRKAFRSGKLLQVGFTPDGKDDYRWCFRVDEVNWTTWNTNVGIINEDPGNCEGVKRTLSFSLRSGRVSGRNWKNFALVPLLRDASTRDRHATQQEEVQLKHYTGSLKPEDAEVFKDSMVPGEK
T1 sequence (O35433 whole entry): as above

`C=C(C)[C@]12C[C@@H](C)[C@@]34O[C@](Cc5ccccc5)(O[C@@H]1[C@@H]3C=C(COC(=O)Cc1ccc(O)c(OC)c1)C[C@]1(O)C(=O)C(C)=C[C@@H]41)O2` [RTX, resiniferatoxin]: in assay [1] (+60 mV), the single-channel conductance is 103.3±0.83 pS, the single-channel current amplitude amounted to 6.19±0.05 pA and the Po came to 0.88±0.03. Moreover, in assay [1] (setting [3]), the “current amplitudes of multiple conductance states” value was 3.5 pA and 5.3 pA and 6.9 pA; the “single-channel conductance of multiple conductance states” value was 58 pS and 88 pS and 115 pS. Moreover, in assay [1] (−60 mV), the single-channel conductance is 43±2.8 pS, the single-channel current amplitude was 2.59±0.17 pA and the Po was 0.83±0.05. The “activation time (10-90% of the rising phase)” value in assay [2] stood at 61.4±4.4 s. Moreover, in assay [2] (RTX 10 nM), the “reversal potential of agonist-induced whole-cell current” value is given as −10.4±0.53 mV and the “reversal/deactivation of current on agonist removal” value is listed as “did not deactivate even after a prolonged washout”. For the same compound, in assay [2] (ramp −80 to +80 mV, RTX 10 nM), the “ratio of outward and inward currents (rectification)” value was 2.35±0.97.
As to `COc1cc(CNC(=O)CCCC/C=C/C(C)C)ccc1O` [capsaicin], in assay [1] (+60 mV), the single-channel conductance is listed as 95.3±1.7 pS, the single-channel current amplitude was 5.71±0.1 pA and the Po stood at 0.4±0.03. In assay [1] (−60 mV), this compound registered a single-channel conductance of 41.8±1.3 pS, a single-channel current amplitude of 2.52±0.08 pA and a Po of 0.14±0.01. Also, the “activation time (10-90% of the rising phase)” value in assay [2] is 23.9±1.5 s. Moreover, in assay [2] (RTX 10 nM), the “reversal potential of agonist-induced whole-cell current” value is listed as −12.3±0.42 mV and the “reversal/deactivation of current on agonist removal” value was “could be reversed readily”.
